Source: US20080045514A1 (Cytovia, Inc., priority 2006, published 2008)
Structures can show the parent of a compound that is named as a salt.

Tests used:
Format in all cases: cell-based
[1] = tested on: human colon carcinoma cell line HCT116; assay: Inhibition of cell proliferation (GI50), HCT116; details: Homo sapiens; HCT 116 cells, 48 h, CellTiter-Glo
Experimental: (§1) Human breast cancer cell lines T-47D, human hepatocellular carcinoma cell line SNU398, human colon carcinoma cell line HCT116, human lung cancer cell line H1299, human leukemia cell line K562, human lymphoma cell line Raji, human B cell lymphoblastoid cell line Ramos, and human Burkitt's lymphoma cell line Namalwa were grown and harvested as in Example 100. An aliquot of […] of cells (4.4×10^4 cells/mL) was added to a well of a 96-well microtiter plate containing 5 μL of a 10% DMSO in RPMI-1640 media solution containing 10 nM to 100 μM of 3-(2-chlorophenyl)-6-(3,4-methylenedioxyphenyl)-7H-[1,2,4]triazolo[3,4-b][1,3,4]thiadiazine (1 nM to 10 μM final). An aliquot of 45 μL of cells was added to a well of a 96-well microtiter plate containing 5 μL of a 10% DMSO in RPMI-1640 media solution without compound as the control sample for maximal cell proliferation (LMax). The samples were mixed by agitation and then incubated at 37° C. for 48 h in a 5% CO2-95% humidity incubator. After incubation, the samples were removed from the incubator and 25 μL of CellTiter-Glo™ reagent (Promega) was added. The samples were mixed by agitation and incubated at room temperature for 10-15 min. Plates were then read using a luminescent plate reader (Model SPECTRAfluor Plus, Tecan) to give Ltest values.
(§2) The samples were mixed by agitation and then incubated at 37° C. for 0.5 h in a 5% CO2-95% humidity incubator. After incubation, the samples were removed from the incubator and 25 μL of CellTiter-Glo™ reagent (Promega) was added. The samples were mixed by agitation and incubated at […] 10-15 min at room temperature in a 5% CO2-95% humidity incubator. Fluorescence was read as above, (LStart) defining luminescence for initial cell number used as baseline in GI50 determinations.
(§3) Calculation: GI50 (dose for 50% inhibition of cell proliferation) is the concentration where [(Ltest−LStart)/(LMax−LStart)]=0.5.

[2] = tested on: human B cell lymphoblastoid cell line Ramos; assay: Caspase cascade activation (EC50), Ramos; details: Homo sapiens, RAMOS cells, read-out: caspase potency (EC50) RAMOS
Experimental: (§4) Human breast cancer cell lines T-47D, human hepatocellular carcinoma cell line SNU398, human colon carcinoma cell line HCT116, human cancer cell line H1299, human Burkitt's lymphoma cell line Namalwa, human lymphoma cell line Raji, and human B cell lymphoblastoid cell line Ramos were grown according to media component mixtures designated by American Type Culture Collection+10% FCS (Invitrogen Corporation), in a 5% CO2-95% humidity incubator at 37° C. T-47D and H1299 cells were maintained at a cell density between 50 and 80% confluency at a cell density of 0.1 to 0.6×10^6 cells/mL. Cells were harvested at 600×g and resuspended at 0.65×10^6 cells/mL into appropriate media+10% FCS. An aliquot of 22.5 μL of cells was added to a well of a 384-well microtiter plate containing 2.5 μL of a 10% DMSO in RPMI-1640 media solution containing 0.16 to 100 μM of 3-(2-chlorophenyl)-6-(3,4-methylenedioxyphenyl)-7H-[1,2,4]triazolo[3,4-b][1,3,4]thiadiazine or other test compound (0.016 to 10 μM final). An aliquot of 22.5 μL of cells was added to a well of a 384-well microtiter plate containing 2.5 μL of a 10% DMSO in RPMI-1640 media solution without test compound as the control sample. The samples were mixed by agitation and then incubated at 37° C. for 48 h in a 5% CO2-95% humidity incubator. After incubation, the samples were removed from the incubator and 25 μL of a solution containing 14 μM of N—(Ac-DEVD)-N′-ethoxycarbonyl-R110 (SEQ ID No.:1) fluorogenic substrate (Cytovia, Inc.; WO99/18856), 20% sucrose (Sigma), 20 mM DTT (Sigma), 200 mM NaCl (Sigma), 40 mM Na PIPES buffer pH 7.2 (Sigma), and 500 μg/mL lysolecithin (Calbiochem) was added. The samples were mixed by agitation and incubated at room temperature. Using a fluorescent plate reader (Model SPECTRAfluor Plus, Tecan), an initial reading (T=0) was made approximately 1-2 min after addition of the substrate solution, employing excitation at 485 nm and emission at 530 nm, to determine the background fluorescence of the control sample. After the 3 h incubation, the samples were read for fluorescence as above (T=3 h). Calculation: The Relative Fluorescence Unit values (RFU) were used to calculate the sample readings as follows: RFU(T=3H)−Control RFU(T=0)=Net RFU(T=3h) The activity of caspase cascade activation was determined by the ratio of the net RFU value for 3-(2-chlorophenyl)-6-(3,4-methylenedioxyphenyl)-7H-[1,2,4]triazolo[3,4-b][1,3,4]thiadiazine (Example P) or other test compound to that of control samples. The EC50 (nM) was determined by a sigmoidal dose-response calculation (Prism 3.0, GraphPad Software Inc.).

[3] = tested on: human colon carcinoma cell line HCT116; assay: Caspase cascade activation (EC50), HCT116; details: Homo sapiens, HCT-116; HCT116 cells; caspase cascade activation; read-out: caspase potency (EC50) HCT116
Method in brief: (§5)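 Cells were resuspended at 0.65×10^6 cells/mL in medium + 10% FCS and exposed to test compound at 0.016 to 10 μM final for 48 h at 37 °C. Caspase activity was then read as fluorescence (ex 485/em 530 nm) from DEVD-R110 substrate with lysolecithin in PIPES pH 7.2, 3 h at room temperature.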

[4] = tested on: human Burkitt's lymphoma cell line Namalwa; assay: Inhibition of cell proliferation (GI50), Namalwa; details: Homo sapiens, Burkitts lymphoma cell; Namalwa cells, 48 h, CellTiter-Glo
Experimental: as §1, §2, §3

[5] = tested on: human hepatocellular carcinoma cell line SNU398; assay: Caspase cascade activation (EC50), SNU398; details: Homo sapiens, SNU-398; SNU398 cells; caspase cascade activation; read-out: caspase potency (EC50) SNU398
Method in brief: as §5

[6] = tested on: human lymphoma cell line Raji; assay: Caspase cascade activation (EC50), Raji; details: Homo sapiens, RAJI cells, read-out: caspase potency (EC50) RAJI
Experimental: as §4

[7] = tested on: human lymphoma cell line Raji; assay: Inhibition of cell proliferation (GI50), Raji; details: Homo sapiens; Raji cells, 48 h, CellTiter-Glo
Experimental: as §1, §2, §3

[8] = tested on: human leukemia cell line K562; assay: Inhibition of cell proliferation (GI50), K562; details: Homo sapiens; K562 cells, 48 h, CellTiter-Glo
Experimental: as §1, §2, §3

[9] = tested on: human breast cancer cell line T-47D; assay: Caspase cascade activation (EC50), T-47D; details: Homo sapiens; T47D cells; caspase cascade activation; read-out: caspase potency (EC50) T47D
Method in brief: as §5

[10] = tested on: human B cell lymphoblastoid cell line Ramos; assay: Inhibition of cell proliferation (GI50), Ramos; details: Homo sapiens; Ramos cells, 48 h, CellTiter-Glo
Experimental: as §1, §2, §3

[11] = tested on: human Burkitt's lymphoma cell line Namalwa; assay: Caspase cascade activation (EC50), Namalwa; details: Homo sapiens, Burkitts lymphoma cell; Namalwa cells; caspase cascade activation; read-out: caspase potency (EC50) Namalwa
Method in brief: as §5

[12] = tested on: human cancer cell line H1299; assay: Caspase cascade activation (EC50), H1299; details: NCI-H1299, H1299 cells, read-out: caspase potency (EC50) H1299
Experimental: as §4

| Compound | GI50 [1] [nM] | EC50 [2] [nM] | EC50 [3] [nM] | GI50 [4] [nM] | EC50 [5] [nM] | EC50 [6] [nM] | GI50 [7] [nM] | GI50 [8] [nM] | EC50 [9] [nM] | GI50 [10] [nM] | EC50 [11] [nM] | EC50 [12] [nM] |
| --- | --- | --- | --- | --- | --- | --- | --- | --- | --- | --- | --- | --- |
| COc1cc(-c2nnc3n2N=C(c2ccc(C)cc2)CS3)cc(OC)c1O [Example 13, 3-(3,5-Dimethoxy-4-hydroxyphenyl)-6-(4-methylphenyl)-7H-[1,2,4]triazolo[3,4-b][1,3,4]thiadiazine hydrobromide] | 165 | 69 | 189 | 18 | 101 | 52 | 97 | 51 | 625 | 50 | 73 | – |
| COc1ccc(C2=Nn3c(nnc3-c3ccccc3C)SC2)cc1 [Example N2, 3-(2-Methylphenyl)-6-(4-methoxyphenyl)-7H-[1,2,4]triazolo[3,4-b][1,3,4]thiadiazine] | 171 | 29 | 34 | 34 | 31 | 53 | 164 | 38 | 191 | 13 | 41 | – |
| CCOc1ccc(C2=Nn3c(nnc3-c3ccccc3Br)SC2)cc1 [Example A3] | 361 | 125 | 314 | 79 | 243 | 268 | 103 | 41 | 1080 | 17 | 104 | – |
| COc1cc(OC)cc(-c2nnc3n2N=C(c2ccc(C)cc2)CS3)c1 [Example 12, 3-(3,5-Dimethoxyphenyl)-6-(4-methylphenyl)-7H-[1,2,4]triazolo[3,4-b][1,3,4]thiadiazine hydrochloride] | 50 | 20 | 71 | 6 | 61 | 55 | 15 | 7 | 760 | 5 | 20 | – |
| COc1ccc(-c2nnc3n2N=C(c2ccc(C)cc2)CS3)cc1OC [Example 14, 3-(3,4-Dimethoxyphenyl)-6-(4-methylphenyl)-7H-[1,2,4]triazolo[3,4-b][1,3,4]thiadiazine hydrobromide] | 1010 | 125 | 107 | 137 | 65 | 198 | 838 | 87 | 396 | 300 | 131 | – |
| CC(C)Oc1cccc(-c2nnc3n2N=C(c2ccc4c(c2)OCO4)CS3)c1 [Example R1, 3-(3-Isopropyloxyphenyl)-6-(3,4-methylenedioxyphenyl)-7H-[1,2,4]triazolo[3,4-b][1,3,4]thiadiazine] | – | > 1000 | > 10000 | – | 5600 | > 1000 | – | – | > 10000 | – | > 1000 | > 10000 |
| COc1cccc(-c2nnc3n2N=C(c2ccc(OC)c(OC)c2)CS3)c1 [Y, 3-(3-Methoxyphenyl)-6-(3,4-dimethoxyphenyl)-7H-[1,2,4]triazolo[3,4-b][1,3,4]thiadiazine] | – | 593 | 3180 | – | 1360 | 735 | – | – | 4130 | – | 558 | 2850 |
| COc1ccc(-c2nnc3n2N=C(c2cc(OC)ccc2OC)CS3)cc1 [H, 3-(4-Methoxyphenyl)-6-(2,5-dimethoxyphenyl)-7H-[1,2,4]triazolo[3,4-b][1,3,4]thiadiazine] | – | 1270 | > 10000 | – | 1230 | 2330 | – | – | 2440 | – | 1180 | 2420 |
| Clc1cccc(-c2nnc3n2N=C(c2ccc4c(c2)OCO4)CS3)c1 [S, 3-(3-Chlorophenyl)-6-(3,4-methylenedioxyphenyl)-7H-[1,2,4]triazolo[3,4-b][1,3,4]thiadiazine] | – | > 1000 | > 10000 | – | 1630 | > 1000 | – | – | > 10000 | – | > 10000 | > 10000 |
| CCOc1ccc(C2=Nn3c(nnc3-c3cc(OC)c(OC)c(OC)c3)SC2)cc1 [Example T1, 3-(3,4,5-Trimethoxyphenyl)-6-(4-ethoxyphenyl)-7H-[1,2,4]triazolo[3,4-b][1,3,4]thiadiazine] | – | 498 | > 10000 | – | 519 | 656 | – | – | 2580 | – | 510 | 2580 |
| Clc1ccc(-c2nnc3n2N=C(c2ccc4c(c2)OCO4)CS3)c(Cl)c1 [Example I1, 3-(2,4-Dichlorophenyl)-6-(3,4-methylenedioxyphenyl)-7H-[1,2,4]triazolo[3,4-b][1,3,4]thiadiazine] | – | 150 | 254 | – | 172 | 171 | – | – | 278 | – | 221 | 1380 |
